Among the data in US8791108B2, “Inhibitors of human immunodeficiency virus replication” (priority 2011, dated 2014) are EC50 values, retold here.

Read-outs that look alike come from different tables or passages of the source.

For this experiment, the system named is recombinant NL-Rluc virus. The experiment can be described thus: Inhibition of HIV replication (NL-RLuc luciferase reporter virus, MT-2 cells). Format: cell-based. The conditions noted are these: Human immunodeficiency virus 1, MT2, 120 h.

`Cc1nc2cc(C(=O)NCc3ccc(F)cc3N3CCCC3=O)nn2c(-c2cc(F)c3c(c2C)CCCO3)c1[C@H](OC(C)(C)C)C(=O)O` [Example 12, (2S)-2-(tert-butoxy)-2-(2-((4-fluoro-2-(2-oxopyrrolidin-1-yl)benzyl)carbamoyl)-7-(8-fluoro-5-methylchroman-6-yl)-5-methylpyrazolo[1,5-a]pyrimidin-6-yl)acetic acid]: the EC50 (read-out: Activity) was greater than 1 µM.

Consider `Cc1nc2cc(C(=O)NCc3cccc(C(F)(F)F)c3)nn2c(-c2cc(F)c3c(c2C)CCCO3)c1[C@H](OC(C)(C)C)C(=O)O` [Example 64], for which the EC50 (read-out: Activity) is less than 0.1 µM. As to `COc1ccccc1CNC(=O)c1cc2nc(C)c([C@H](OC(C)(C)C)C(=O)O)c(-c3cc(F)c4c(c3C)CCCO4)n2n1` [Example 42, (2S)-2-(tert-butoxy)-2-(7-(8-fluoro-5-methylchroman-6-yl)-2-((2-methoxybenzyl)carbamoyl)-5-methylpyrazolo[1,5-a]pyrimidin-6-yl)acetic acid], the EC50 (read-out: Activity) was less than 0.1 µM.

With `Cc1nc2cc(C(=O)N(C)CCc3ccccn3)nn2c(-c2cc(F)c3c(c2C)CCCO3)c1[C@H](OC(C)(C)C)C(=O)O` [Example 89, (2S)-2-(tert-butoxy)-2-(7-(8-fluoro-5-methylchroman-6-yl)-5-methyl-2-(methyl(2-(pyridin-2-yl)ethyl)carbamoyl)pyrazolo[1,5-a]pyrimidin-6-yl)acetic acid], for the setting “read-out: Activity”, the EC50 is greater than 1 µM. With `Cc1nc2cc(C(=O)NCc3ccc4c(c3)OCO4)nn2c(-c2cc(F)c3c(c2C)CCCO3)c1[C@H](OC(C)(C)C)C(=O)O` [Example 34, (2S)-2-(2-((benzo[d][1,3]dioxol-5-ylmethyl)carbamoyl)-7-(8-fluoro-5-methylchroman-6-yl)-5-methylpyrazolo[1,5-a]pyrimidin-6-yl)-2-(tert-butoxy)acetic acid], the EC50 (read-out: Activity) is less than 0.1 µM. For the compound `Cc1nc2cc(C(=O)N3CCC(N4CCCCC4)CC3)nn2c(-c2cc(F)c3c(c2C)CCCO3)c1[C@H](OC(C)(C)C)C(=O)O` [Example 95, (2S)-2-(2-([1,4′-bipiperidine]-1′-carbonyl)-7-(8-fluoro-5-methylchroman-6-yl)-5-methylpyrazolo[1,5-a]pyrimidin-6-yl)-2-(tert-butoxy)acetic acid], where the note is “read-out: Activity”, the EC50 is greater than 1 µM. With `Cc1nc2cc(C(=O)NCc3cc(Cl)cc(Cl)c3)nn2c(-c2cc(F)c3c(c2C)CCCO3)c1[C@H](OC(C)(C)C)C(=O)O` [Example 118, (2S)-2-(tert-butoxy)-2-(2-((3,5-dichlorobenzyl)carbamoyl)-7-(8-fluoro-5-methylchroman-6-yl)-5-methylpyrazolo[1,5-a]pyrimidin-6-yl)acetic acid], for the setting “read-out: Activity”, the EC50 is less than 0.1 µM. `Cc1nc2cc(C(=O)NCCC3CCN(Cc4ccccc4)CC3)nn2c(-c2cc(F)c3c(c2C)CCCO3)c1[C@H](OC(C)(C)C)C(=O)O` [Example 72, (2S)-2-(2-((2-(1-benzylpiperidin-4-yl)ethyl)carbamoyl)-7-(8-fluoro-5-methylchroman-6-yl)-5-methylpyrazolo[1,5-a]pyrimidin-6-yl)-2-(tert-butoxy)acetic acid]: the EC50 is 0.1 to 1 µM (read-out: Activity) and 0.668 µM (read-out: EC50 μM). For the compound `Cc1nc2cc(C(=O)NCc3csc(-c4ccccc4)n3)nn2c(-c2cc(F)c3c(c2C)CCCO3)c1[C@H](OC(C)(C)C)C(=O)O` [Example 45, (2S)-2-(tert-butoxy)-2-(7-(8-fluoro-5-methylchroman-6-yl)-5-methyl-2-(((2-phenylthiazol-4-yl)methyl)carbamoyl)pyrazolo[1,5-a]pyrimidin-6-yl)acetic acid], the EC50 (read-out: Activity) was less than 0.1 µM. Regarding `Cc1nc2cc(C(=O)NCCC(C)(C)C)nn2c(-c2cc3c(cc2F)OCCN3)c1[C@H](OC(C)(C)C)C(=O)O` [Example 146, (2S)-2-(tert-Butoxy)-2-(2-((3,3-dimethylbutyl)carbamoyl)-7-(7-fluoro-3,4-dihydro-2H-benzo[b][1,4]oxazin-6-yl)-5-methylpyrazolo[1,5-a]pyrimidin-6-yl)acetic acid], under “read-out: Activity”, the EC50 is less than 0.1 µM. On to `Cc1nc2cc(C(=O)NCCCn3ccnc3)nn2c(-c2cc(F)c3c(c2C)CCCO3)c1[C@H](OC(C)(C)C)C(=O)O` [Example 51], for which the EC50 (read-out: Activity) was greater than 1 µM.
